The source of these data is patent US4764618A, “Arginine derivatives and pharmaceutically acceptable acid addition salts thereof” (Mitsubishi Chemical Industries Limited, priority 1984, dated 1988).

The target in the assay is T1, trypsin (Bos taurus, UniProt P00760).
T1 sequence (P00760 24-246): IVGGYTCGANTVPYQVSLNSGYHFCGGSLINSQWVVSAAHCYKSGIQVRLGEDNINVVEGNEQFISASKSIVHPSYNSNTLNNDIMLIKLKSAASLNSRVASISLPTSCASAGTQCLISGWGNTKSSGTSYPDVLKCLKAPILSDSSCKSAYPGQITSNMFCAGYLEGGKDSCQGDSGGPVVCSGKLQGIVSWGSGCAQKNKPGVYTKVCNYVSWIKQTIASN
As to the kind of experiment: Determination of Trypsin-Inhibiting Activity (chromogenic substrate S-2222). The assay is classed as biochemical. The conditions noted are these: inhibitor concentration giving 50% of ΔA/min (405 nm) without inhibitor; 33.3 μM S-2222, 0.1 M Tris-HCl pH 8.3, 37° C.; read-out: I50. As to the method:
Trypsin-inhibiting activity of the arginine derivatives of this invention was determined by the method described below.
Determination of Trypsin-Inhibiting Activity
Trypsin activity is determined by measuring the rate of formation of para-nitroaniline from synthesized chromogenic substrate Jz-Ile-Glu(γ-OH and γ-OCH3)-Gly-Arg-pNA (S-2222)(benzoylisoleucylglutamyl(γ-OH:γ-OCH3 =1:1)glycylarginine p-nitroanilide) supplied by Kabi Diagnostica Inc. Three (3) ml of a reaction mixture containing 33.3 μM of S-2222 and 0.1 M Tris-HCl buffer solution (pH 8.3) is placed in a cell for spectrophotometry and the cell is placed in the thermostatic cell holder at 37° C. of a Hitachi 124 spectrophotometer. After the cell is kept at 37° C. for 3 minutes, 10 μl of a solution of trypsin dissolved in 0.001N HCl containing 0.05M CaCl2 is added, and increase in absorbance at 405 nm is continuously measured using a recorder to calculate ΔA/min at an initial portion. Various inhibitors in various concentrations are added and ΔA/min values are respectively measured. Data are plotted with the inhibitor concentration as abscissa and ΔA/min as ordinate. From the resulting graph the inhibitor concentrations which give ΔA/min corresponding to 50% of the ΔA/min value when no inhibitor is added are sought as I50.

pIC50: −log10 of the molar value.

Turning to `Cc1ccc(S(=O)(=O)N[C@@H](CCCNC(=N)N)C(=O)N2CCN(c3ccccc3)CC2)cc1` [compound 8], the pIC50 was 4.13. As for `COc1ccc2ccc(S(=O)(=O)N[C@@H](CCCNC(=N)N)C(=O)N3CCN(c4ccccc4C)CC3)cc2c1` [compound 22], the pIC50 was 6.40.

As to `COc1ccc2ccc(S(=O)(=O)N[C@@H](CCCNC(=N)N)C(=O)N3CCC(C(C)=O)(c4ccccc4)CC3)cc2c1` [compound 27], the pIC50 was 4.46. For `COc1ccc2cc(S(=O)(=O)N[C@@H](CCCNC(=N)N)C(=O)N3CCC(c4ccccc4)CC3)cc(OC)c2c1` [compound 13], the pIC50 is 5.65. As to `N=C(N)NCCC[C@H](NS(=O)(=O)c1ccc2c(c1)CCCC2)C(=O)N1CCC(c2ccccc2)CC1` [compound 35], the pIC50 is 5.17. For `COc1ccc2ccc(S(=O)(=O)N[C@@H](CCCNC(=N)N)C(=O)N3CCC(c4ccccc4)CC3)cc2c1` [Run No. 2, 1-[N^2-(7-methoxy-2-naphthalenesulfonyl)-L-arginyl]-4-phenylpiperidine], the pIC50 is 6.64. For `CCOC(=O)C1(c2ccccc2)CCN(C(=O)[C@H](CCCNC(=N)N)NS(=O)(=O)c2ccc3ccc(OC)cc3c2)CC1` [Run No. 54], the pIC50 was 4.92. Regarding `COc1ccc2ccc(S(=O)(=O)N[C@@H](CCCNC(=N)N)C(=O)N3CCN(c4cccc(Cl)c4)CC3)cc2c1` [compound 17], the pIC50 is 6.42. On to `Cc1cc2ccc(S(=O)(=O)N[C@@H](CCCNC(=N)N)C(=O)N3CCC(c4ccccc4)CC3)cc2cc1C` [compound 32], for which the pIC50 is 5.05. The figure for `COc1cc2ccc(S(=O)(=O)N[C@@H](CCCNC(=N)N)C(=O)N3CCN(c4ccccc4)CC3)cc2cc1OC` [compound 9] is 5.11. For the compound `CC1CNc2c(cccc2S(=O)(=O)N[C@@H](CCCNC(=N)N)C(=O)N2CCC(c3ccccc3)CC2)C1` (some centres unmarked) [Run No. 1], the pIC50 was 5.68. Regarding `COc1cc2ccc(S(=O)(=O)N[C@@H](CCCNC(=N)N)C(=O)N3CCC(Cc4ccccc4)CC3)cc2cc1OC` [Run No. 4], the pIC50 was 5.46.

`COc1ccc(N2CCN(C(=O)[C@H](CCCNC(=N)N)NS(=O)(=O)c3ccc4ccc(OC)cc4c3)CC2)cc1` [compound 28]: the pIC50 was 5.55. The figure for `Cc1ccc(S(=O)(=O)N[C@@H](CCCNC(=N)N)C(=O)N2CCC(c3ccccc3)CC2)cc1` [Run No. 5] is 4.66. The figure for `COc1ccc2ccc(S(=O)(=O)N[C@@H](CCCNC(=N)N)C(=O)N3CCC(c4cccc(C)c4)CC3)cc2c1` [compound 51] is 6.52; for `COc1ccc2cc(S(=O)(=O)N[C@@H](CCCNC(=N)N)C(=O)N3CCC(c4ccccc4)CC3)ccc2c1` [compound 31] it is 4.39. The figure for `N=C(N)NCCC[C@H](NC(=O)c1cccc2ccccc12)C(=O)N1CCC(c2ccccc2)CC1` [compound 14] is 3.40; for `N=C(N)NCCC[C@H](NS(=O)(=O)c1ccc2ccc(Cl)cc2c1)C(=O)N1CCC(c2ccccc2)CC1` [compound 48] it is 5.96; for `COc1cccc(C2CCN(C(=O)[C@H](CCCNC(=N)N)NS(=O)(=O)c3ccc4ccc(OC)cc4c3)CC2)c1` [compound 58] it is 6.12. On to `COc1ccc2ccc(S(=O)(=O)N[C@@H](CCCNC(=N)N)C(=O)N3CCC(C#N)(c4ccccc4)CC3)cc2c1` [compound 30], for which the pIC50 was 5.89.

As for `N=C(N)NCCC[C@H](NS(=O)(=O)c1ccc2oc3ccccc3c2c1)C(=O)N1CCC(c2ccccc2)CC1` [compound 10], the pIC50 was 5.66. Consider `N=C(N)NCCC[C@H](NS(=O)(=O)c1cccc2c(Cl)cccc12)C(=O)N1CCC(c2ccccc2)CC1` [compound 47], for which the pIC50 was 5.60. In the case of `N=C(N)NCCC[C@H](NS(=O)(=O)c1ccc2ccc(O)cc2c1)C(=O)N1CCC(c2ccccc2)CC1` [compound 42], the pIC50 was 4.43. Consider `N=C(N)NCCC[C@H](NS(=O)(=O)c1ccc2c(c1)Cc1ccccc1-2)C(=O)N1CCC(c2ccccc2)CC1` [compound 11], for which the pIC50 is 5.49. For `Cc1ccc2ccc(S(=O)(=O)N[C@@H](CCCNC(=N)N)C(=O)N3CCC(c4ccccc4)CC3)cc2c1` [compound 12], the pIC50 is 6.00. Take `COc1cc2c(S(=O)(=O)N[C@@H](CCCNC(=N)N)C(=O)N3CCC(c4ccccc4)CC3)cccc2cc1C(=O)O` [compound 50]: the pIC50 was 3.35. Turning to `COc1cccc2cccc(S(=O)(=O)N[C@@H](CCCNC(=N)N)C(=O)N3CCC(c4ccccc4)CC3)c12` [compound 36], the pIC50 was 4.06. For `COc1ccc2ccc(S(=O)(=O)N[C@@H](CCCNC(=N)N)C(=O)N3CCN(c4ccccc4Cl)CC3)cc2c1` [compound 18], the pIC50 was 6.48. With `CCOC(=O)c1cc2cccc(S(=O)(=O)N[C@@H](CCCNC(=N)N)C(=O)N3CCC(c4ccccc4)CC3)c2cc1OC` [Run No. 49], the pIC50 was 5.68.

As for `N=C(N)NCCC[C@H](NS(=O)(=O)c1ccc2ccccc2c1)C(=O)N1CCC(c2ccccc2)CC1` [compound 38], the pIC50 was 5.49. Turning to `CCOC(=O)C1CC(c2ccccc2)CCN1C(=O)[C@H](CCCNC(=N)N)NS(=O)(=O)c1ccc2ccc(OC)cc2c1` (some centres unmarked) [Run No. 23], the pIC50 was 6.19.

As for `COc1ccc2ccc(S(=O)(=O)N[C@@H](CCCNC(=N)N)C(=O)N3CCC(c4ccccc4OC)CC3)cc2c1` [compound 39], the pIC50 was 6.55. `COc1ccc2ccc(S(=O)(=O)N[C@@H](CCCNC(=N)N)C(=O)N3CCN(c4ccccc4O)CC3)cc2c1` [compound 55]: the pIC50 was 6.10.

With `COc1ccc2ccc(S(=O)(=O)N[C@@H](CCCNC(=N)N)C(=O)N3CCC(c4ccc(Cl)cc4)CC3)cc2c1` [compound 41], the pIC50 is 6.34. `N=C(N)NCCC[C@H](NS(=O)(=O)c1cccc2c1CCCC2)C(=O)N1CCC(c2ccccc2)CC1` [compound 34]: the pIC50 was 5.11.

Consider `COc1ccc2ccc(S(=O)(=O)N[C@@H](CCCNC(=N)N)C(=O)N3CCN(c4cc(Cl)cc(Cl)c4)CC3)cc2c1` [compound 45], for which the pIC50 was 6.00. Take `COc1ccc2ccc(S(=O)(=O)N[C@@H](CCCNC(=N)N)C(=O)N3CCC(c4ccccc4C)CC3)cc2c1` [compound 40]: the pIC50 was 6.40. For the compound `COc1ccc2ccc(S(=O)(=O)N[C@@H](CCCNC(=N)N)C(=O)N3CCN(c4ccc(Cl)cc4)CC3)cc2c1` [compound 16], the pIC50 was 6.16. On to `COc1ccc2ccc(S(=O)(=O)N[C@@H](CCCNC(=N)N)C(=O)N3CCC(c4ccc(C)cc4)CC3)cc2c1` [compound 53], for which the pIC50 was 6.43. The figure for `CCOc1c(OC)ccc(S(=O)(=O)N[C@@H](CCCNC(=N)N)C(=O)N2CCC(c3ccccc3)CC2)c1OC` [compound 19] is 5.62; for `COc1ccc2ccc(S(=O)(=O)N[C@@H](CCCNC(=N)N)C(=O)N3CCN(c4ccccc4)CC3)cc2c1` [compound 7] it is 5.82.

Take `COc1ccc2ccc(S(=O)(=O)N[C@@H](CCCNC(=N)N)C(=O)N3CC[C@H](c4ccccc4)C[C@H]3C(=O)O)cc2c1` [compound 57]: the pIC50 was 5.72.

`COc1ccc(S(=O)(=O)N[C@@H](CCCNC(=N)N)C(=O)N2CCC(c3ccccc3)CC2)c2ccccc12` [compound 29]: the pIC50 was 5.66. The figure for `COc1ccc2ccc(S(=O)(=O)N[C@@H](CCCNC(=N)N)C(=O)N3CC[C@@H](c4ccccc4)C[C@@H]3C(=O)O)cc2c1` [compound 56] is 6.82.
